These results are taken from patent US20230011869A1 (Hoffmann-La Roche Inc., priority 2018, published 2023).

This experiment has as its system Acinetobacter baumannii ATCC17978. In words: Antimicrobial susceptibility testing: 90% growth inhibitory concentration (IC90) determination, Iso-Sensitest broth. Format: cell-based. Summed up: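 A. baumannii ATCC17978 grown in Iso-Sensitest broth across 10 compound concentrations at 35±2 °C.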
Setting [1] is: 90% growth inhibitory concentration, Acinetobacter baumannii ATCC17978, Iso-Sensitest broth, OD 600 nm over 16 h, read-out: ATCC17978 IC90.
[2] abbreviates: Acinetobacter baumannii, ATCC17978, 16 h, read-out: ATCC17978 IC90, 90% growth inhibitory concentration, Acinetobacter baumannii ATCC17978, Iso-Sensitest broth, OD 600 nm over 16 h.

Counter-ions that a name gives are not always drawn. Like-named read-outs stand apart in the source and are kept apart here.

Turning to `CCc1cc(Nc2nccn3c(-c4ccc(OS(C)(=O)=O)c(F)c4F)cnc23)ccc1C(=O)N1CCN(C(=O)C2CCNCC2)CC1` [Example 451, [4-[8-[3-ethyl-4-[4-(piperidine-4-carbonyl)piperazine-1-carobnyl]anilino]imidazo[1,2-a]pyrazin-3-yl]-2,3-difluorophenyl] methanesulfonate; formic acid], under setting [1], the IC90 was determined as 2.7 µM.

For the compound `Cc1cc(Nc2nccn3c(-c4ccc(OC(F)F)cc4)cnc23)ccc1C(=O)N1CCN(C(=O)[C@@H](N)CCCCN)CC1` [Example 452, (2S)-2,6-diamino-1-[4-[4-[[3-[4-(difluoromethoxy)phenyl]imi-dazo[1,2-a]pyrazin-8-yl]amino]-2-methylbenzoyl]piperazin-1-yl]hexan-1-one; hydrochloride], the IC90 under setting [2] was determined as 3.6 µM.

As to `Cc1cc(Nc2nccn3c(-c4ccc(OS(C)(=O)=O)c(F)c4F)cnc23)ccc1C(=O)N1CCN(C(=O)[C@@H]2C[C@@H](O)CN2)CC1` [Example 453, [2,3-difluoro-4-[8-[4-[4-[(2S,4R)-4-hydroxypyrrolidine-2-carbonyl]piperazine-1-carbonyl]-3-methylanilino]imidazo[1,2-a]pyrazin-3-yl]phenyl] methanesulfonate; formic acid], the IC90 under setting [2] was determined as 4.2 µM.

In the case of `CCc1cc(Nc2nccn3c(-c4ccc(OS(C)(=O)=O)c(F)c4F)cnc23)ccc1C(=O)N1CCN(C(=O)[C@@H]2C[C@@H](O)CN2)CC1` [Example 454, [4-[8-[3-ethyl-4-[4-[(2S,4R)-4-hydroxypyrrolidine-2-carbonyl]piperazine-1-carbonyl]anilino]imidazo[1,2-a]pyrazin-3-yl]-2,3-difluorophenyl] methanesulfonate; formic acid], under setting [2], the IC90 is 4.7 µM.

Regarding `CC[C@@]1(O)CN[C@H](C(=O)N2CCN(C(=O)c3ccc(Nc4nccn5c(-c6ccc(OC)c(F)c6F)cnc45)cc3C)CC2)C1` [Example 456, [4-[[3-(2,3-difluoro-4-methoxyphenyl)imidazo[1,2-a]pyrazin-8-yl]amino]-2-methylphenyl]-[4-[(2S,4S)-4-ethyl-4-hydroxypyrrolidine-2-carbonyl]piperazin-1-yl]methanone; formic acid], the IC90 under setting [2] turned out to be 0.068 µM.

Take `CCc1cc(Nc2nccn3c(-c4ccc(OCC#N)c(F)c4F)cnc23)ccc1C(=O)NCCNC(=O)[C@@H]1C[C@@H](O)CN1` [Example 457, (2S,4R)-N-[2-[[4-[[3-[4-(cyanomethoxy)-2,3-difluorophenyl]imidazo[1,2-a]pyrazin-8-yl]amino]-2-ethylbenzoyl]amino]ethyl]-4-hydroxypyrrolidine-2-carboxamide; formic acid]: under setting [2], the IC90 came to 0.08 µM.

Regarding `Cc1cc(Nc2nccn3c(-c4ccc(O[C@@H](C)C#N)c(F)c4F)cnc23)ccc1C(=O)N1CCN(C(=O)[C@@H]2C[C@](C)(O)CN2)CC1` [Example 459, (2S)-2-[2,3-difluoro-4-[8-[4-[4-[(2S,4S)-4-hydroxy-4-methylpyrrolidine-2-carbonyl]piperazine-1-carbonyl]-3-methylanilino]imidazo[1,2-a]pyrazin-3-yl]phenoxy]propanenitrile; for-mic acid], under setting [1], the IC90 turned out to be 0.082 µM.

Turning to `COc1ccc(-c2cnc3c(Nc4ccc(C(=O)N5CCN(C(=O)[C@H]6CCNC6)CC5)c(C)c4)nccn23)c(F)c1F` [Example 460, [4-[[3-(2,3-difluoro-4-methoxyphenyl)imidazo[1,2-a]pyrazin-8-yl]amino]-2-methylphenyl]-[4-[(3S)-pyrrolidine-3-carbonyl]piperazin-1-yl]methanone; hydrochloride], the IC90 under setting [2] turned out to be 0.083 µM.

Take `Cc1cc(Nc2nccn3c(-c4ccc(OC(F)F)cc4)cnc23)ccc1C(=O)N1CCN(C(=O)[C@@H]2C[C@](C)(O)CN2)CC1` [Example 462, [4-[[3-[4-(difluoromethoxy)phenyl]imi-dazo[1,2-a]pyrazin-8-yl]amino]-2-methylphenyl]-[4-[(2S,4S)-4-hydroxy-4-methylpyrrolidine-2-carbonyl]piperazin-1-yl]methanone; formic acid]: the IC90 under setting [2] amounted to 0.11 µM.

Regarding `CC[C@]1(O)CN[C@H](C(=O)N2CCN(C(=O)c3ccc(Nc4nccn5c(-c6ccc(OC)c(F)c6F)cnc45)cc3C)CC2)C1` [Example 465, [4-[[3-(2,3-difluoro-4-methoxyphenyl)imidazo[1,2-a]pyrazin-8-yl]amino]-2-methylphenyl]-[4-[(2S,4R)-4-ethyl-4-hydroxypyrrolidine-2-carbonyl]piperazin-1-yl]methanone; formic acid], the IC90 under setting [2] was 0.17 µM.

For `Cc1cc(Nc2nccn3c(-c4ccc(O[C@@H](C)C#N)c(F)c4F)cnc23)ccc1C(=O)N1CCN(C(=O)C2(O)CCNCC2)CC1` [Example 467, (2S)-2-[2,3-difluoro-4-[8-[4-[4-(4-hydroxypiperidine-4-carbonyl)piperazine-1-carbonyl]-3-methylanilino]imidazo[1,2-a]pyrazin-3-yl]phenoxy]propanenitrile; for-mic acid], the IC90 under setting [1] is 0.18 µM.

Regarding `Cc1cc(Nc2nccn3c(-c4ccc(O[C@@H](C)C#N)c(F)c4F)cnc23)ccc1C(=O)N1CCN(C(=O)[C@@H]2C[C@@H](O)CN2)CC1` [Example 468, (2S)-2-[2,3-difluoro-4-[8-[4-[4-[(2S,4R)-4-hydroxypyrrolidine-2-carbonyl]piperazine-1-carbonyl]-3-methylanilino]imidazo[1,2-a]pyrazin-3-yl]phenoxy]propanenitrile; for-mic acid], the IC90 under setting [1] was 0.2 µM.

With `Cc1cc(Nc2nccn3c(-c4ccc(OCC#N)c(F)c4Cl)cnc23)ccc1C(=O)N1CCC(C(=O)OC[C@H]2CNCCN2)CC1` [Example 469, [(2R)-piperazin-2-yl]methyl 1-[4-[[3-[2-chloro-4-(cyanomethoxy)-3-fluorophenyl]imidazo[1,2-a]pyrazin-8-yl]amino]-2-methylbenzoyl]piperidine-4-carboxylate], under setting [1], the IC90 turned out to be 0.088 µM.

Consider `Cc1cc(Nc2nccn3c(-c4ccc(OCC#N)c(F)c4Cl)cnc23)ccc1C(=O)N1CCC(C(=O)OC[C@@H]2CNCCN2)CC1` [Example 470, formic acid; [(2S)-piperazin-2-yl]methyl 1-[4-[[3-[2-chloro-4-(cyanomethoxy)-3-fluorophenyl]imidazo[1,2-a]pyrazin-8-yl]amino]-2-methylbenzoyl]piperidine-4-carboxylate], for which the IC90 under setting [2] is 0.092 µM.

Turning to `COc1ccc(-c2cnc3c(Nc4ccc(C(=O)N5CCN(C(=O)[C@@H]6C[C@@H](O)CN6)CC5)c(C)c4)nccn23)c(F)c1F` [Example 471, [4-[[3-(2,3-difluoro-4-methoxyphenyl)imidazo[1,2-a]pyrazin-8-yl]amino]-2-methylphenyl]-[4-[(2S,4R)-4-hydroxypyrrolidine-2-carbonyl]piperazin-1-yl]methanone], under setting [1], the IC90 stood at 0.096 µM.

As for `Cc1cc(Nc2nccn3c(-c4ccc(OCC#N)c(F)c4F)cnc23)ccc1C(=O)N1CCC(C(=O)OC[C@@H]2CNCCN2)CC1` [Example 473, formic acid; [(2S)-piperazin-2-yl]methyl 1-[4-[[3-[4-(cyanomethoxy)-2,3-difluorophenyl]imidazo[1,2-a]pyrazin-8-yl]amino]-2-methylbenzoyl]piperidine-4-carboxylate], under setting [2], the IC90 stood at 0.3 µM.

With `COc1ccc(-c2cnc3c(Nc4ccc(C(=O)N5CCN(C(=O)[C@@H]6CCNC6)CC5)c(C)c4)nccn23)c(Cl)c1F` [Example 474, [4-[[3-(2-chloro-3-fluoro-4-methoxyphenyl)imidazo[1,2-a]pyrazin-8-yl]amino]-2-methylphenyl]-[4-[(3R)-pyrrolidine-3-carbonyl]piperazin-1-yl]methanone; formic acid], under setting [2], the IC90 was determined as 0.094 µM.

Take `COc1ccc(-c2cnc3c(Nc4ccc(C(=O)N5CCN(C(=O)NCCN)CC5)c(C)c4)nccn23)c(F)c1F` [Example 475, N-(2-aminoethyl)-4-[4-[[3-(2,3-difluoro-4-methoxyphenyl)imidazo[1,2-a]pyrazin-8-yl]amino]-2-methylbenzoyl]piperazine-1-carboxamide; formic acid]: the IC90 under setting [2] was 0.097 µM.

With `COc1ccc(-c2cnc3c(Nc4ccc(C(=O)N5CCN(C(=O)[C@@H]6C[C@@H](O)CN6)CC5)c(C)c4)nccn23)c(Cl)c1F` [Example 476, [4-[[3-(2-chloro-3-fluoro-4-methoxyphenyl)imidazo[1,2-a]pyrazin-8-yl]amino]-2-methylphenyl]-[4-[(2S,4R)-4-hydroxypyrrolidine-2-carbonyl]piperazin-1-yl]methanone; formic acid], the IC90 under setting [2] was 0.1 µM.

Consider `COc1ccc(-c2cnc3c(Nc4ccc(C(=O)N5CCN(C(=O)C6(F)CCNCC6)CC5)c(C)c4)nccn23)c(F)c1F` [Example 477, [4-[[3-(2,3-difluoro-4-methoxyphenyl)imidazo[1,2-a]pyrazin-8-yl]amino]-2-methylphenyl]-[4-(4-fluoropiperidine-4-carbonyl)piperazin-1-yl]methanone; hydrochloride], for which, under setting [2], the IC90 was found to be 0.12 µM.

Regarding `COc1ccc(-c2cnc3c(Nc4ccc(C(=O)N5CCN(C(=O)N[C@@H](C)CN)CC5)c(C)c4)nccn23)c(Cl)c1F` [Example 478, formic acid], the IC90 under setting [2] was 0.13 µM.

For the compound `COc1ccc(-c2cnc3c(Nc4ccc(C(=O)N5CCN(C(=O)C6CCNCC6)CC5)c(C)c4)nccn23)c(Cl)c1F` [Example 479, [4-[[3-(2-chloro-3-fluoro-4-methoxyphenyl)imidazo[1,2-a]pyrazin-8-yl]amino]-2-methylphenyl]-[4-(piperidine-4-carbonyl)piperazin-1-yl]methanone; formic acid], the IC90 under setting [2] was 0.13 µM.

Turning to `COc1ccc(-c2cnc3c(Nc4ccc(C(=O)N5CCN(C(=O)N6CCNCC6)CC5)c(C)c4)nccn23)c(F)c1F` [Example 480, [4-[[3-(2,3-difluoro-4-methoxyphenyl)imidazo[1,2-a]pyrazin-8-yl]amino]-2-methylphenyl]-[4-(piperazine-1-carbonyl)piperazin-1-yl]methanone; formic acid], under setting [2], the IC90 came to 0.14 µM.
